Test results as given in patent EP2524688B1, “Composition for modified release comprising ranolazine” (ratiopharm GmbH, priority 2011, dated 2012).

Assay: Stability under stressed conditions (assay and degradation products)
Format: physicochemical
Settings: storage over 5 weeks at 40 °C with 75 % RH and open cap
Description: In Table 1 assay and degradation products results for ranolazine per se, a pharmaceutical composition of the present invention, comprising ranolazine and HPMC-AS as well as a comparative pharmaceutical composition known from the prior art under stressed conditions are shown. Herein the stressed conditions are defined as storage over 5 weeks at 40 °C with 75 % RH and open cap.

## COc1ccccc1OCC(O)CN1CCN(CC(=O)Nc2c(C)cccc2C)CC1 (racemic) [Ranolazine (raw material), (RS)-N-(2,6-Dimethylphenyl)-2-[4-[2-hydroxy-3-(2-methoxyphenoxy)propyl]piperazin-1-yl]acetamide]
  Assay (%): 99.6%
RRt in brackets in the row below
  Biggest impurity % (RRt): 0.066%
